# Tests used:
# [1] = tested on: ATF5, CEBPα and TRIB3 in skin of LMNA^G609G/G609G mice; experiment: Immunofluorescence staining of mouse skin; type: in vivo; details: CBD treated premature aging mice
# Experimental: The tissue sections were washed twice with PBS and incubated in PBSTr (0.1% Triton X-100 in PBS) for 10 minutes. Then the cells were blocked with 5% fetal bovine serum (FBS) in PBSTr for 1 hour at room temperature. Primary antibodies diluted in 5% FBS in PBSTr were added and incubated at 4° C. overnight. On the following day, the cells were washed three times using PBSTr, incubation for 10 minutes each time. Secondary antibodies diluted in 5% FBS in PBSTr were added and incubated at room temperature for 1 hour. The cells were again washed three times using PBSTr, followed by PBS for two times. The slides were mounted with SlowFade Gold antifade reagent. Then the slides were ready to be analyzed under a confocal microscope.
# [2] = tested on: p21, BCL-w, BCL-xL, MCL-1, TRIB3, p-akt in MSCs; experiment: Western blotting in irradiated and non-irradiated MSCs; type: cell-based, human; details: 6-hour 10 μM CBD
# Experimental: FIG. 12a-b illustrates the results of senolytic effect of CBD in mesenchymal stem cells (MSCs) upon irradiation induced senescence.
# The relative cell viability was calculated by normalizing each sample to non-irradiated control sample. […] As CBD selectively killed senescent MSCs while keeping proliferating MSCs unharmed, it was discovered to be a novel senolytic. Referring to FIG. 12b, Western blotting was carried to investigate the mechanism behind CBD's senolytic effect. […] While as proliferating and senescent MSCs responded differently in phosphorylated akt level.
# [3] = tested on: LMNA^G609G/G609G MEFs; experiment: Relative nuclear circularity of MEFs; type: cell-based, mouse; details: 12-day CBD treatment, vs control
# Experimental: In the step of determining the relative nuclear circularity, the primary mouse embryonic fibroblasts (MEFs) at passage 3 were seeded and cultured in chamber slides. Nuclei were stained using DAPI or LMNA/C antibodies. The fluorescence images were captured using confocal microscopy. The perimeter and area of the individual nucleus were measured using software CellProfiler. Relative nuclear circularity was calculated using the formula: […]
# A value of 1 in relative nuclear circularity indicates a perfect circle. Nuclei with relative nuclear circularity closer to 0 indicate they are more irregularly shaped.
# [4] = tested on: wildtype and LMNA^G609G/G609G MEFs; experiment: Senescence-associated beta-galactosidase staining of MEFs; type: cell-based, mouse; details: vs control cells
# Experimental: In the step of determining the senescence lever and optimal concentration, the primary mouse embryonic fibroblasts (MEFs) at passage 3 were seeded and cultured in chamber slides. The slides were washed twice with ice-cold phosphate buffered saline (PBS). Using senescence-associated beta-galactosidase staining kit, the cells were fixed for 10 minutes with provided paraformaldehyde and washed twice with PBS. The slides were then incubated with the staining solution at 37° C. overnight. On the following day, the slides were washed twice with PBS and mounted with 40% glycerol in PBS. The stained cells were observed under a light microscope. Senescent cells were stained blue while proliferating cells were unstained. The percentage of senescent cells was quantified by counting the number of stained and unstained cells.
# [5] = tested on: bone marrow stromal cells of LMNA^G609G/G609G mice; experiment: Crystal violet staining colony formation assay of mouse bone marrow stromal cells; type: in vivo; details: mice treated with 50 mg/kg CBD, vs LMNA^G609G/G609G control mice and wildtype mice; 12 days of culture
# Experimental: In the step of isolating the mouse bone marrow stromal cells for measurement of the clonogenicity, mice were sacrificed and placed inside tissue culture hood. The femur was dissected out using sterile utensils. The mouse bone marrow stromal cells were flushed out of femur using a 29G needle with 1 mL of ice-cold phosphate buffered saline (PBS). The bone marrow stromal cells collected were centrifuged at 3000 rpm for 5 minutes at 4° C. The supernatant was removed, and the cell pellet was resuspended in Minimum Essential Medium Eagle—alpha modification (α-MEM) supplemented with 20% fetal bovine serum (FBS) and penicillin-streptomycin (100 units/mL). The medium was changed every 3 days. After 12 days of culture, crystal violet staining colony formation assay was carried out. The cells were washed twice with ice-cold PBS. The cells were fixed with ice-cold methanol for 10 minutes. Then the cells were stained with 0.5% crystal violet dissolved in 25% methanol for 10 minutes at room temperature. The crystal violet solution was then removed, and the cells were rinsed with double-distilled water (ddH2O) until the rinse became clear. The plates were dried off, and pictures were taken for analysis.
structure (smiles),measurement,setting,value
"C=C(C)[C@@H]1CCC(C)=C[C@H]1c1c(O)cc(CCCCC)cc1O [CBD, Cannabidiol]",ATF5 protein level decrease in skin,[1],reversed
same,CEBPα protein level decrease in skin,[1],reversed
same,TRIB3 protein level decrease in skin,[1],reversed
same,BCL-w level,[2]; irradiated MSCs,downregulated
same,BCL-xL level,[2]; irradiated MSCs,downregulated
same,MCL-1 level,[2]; irradiated MSCs,downregulated
same,p21 level,[2]; irradiated MSCs,significantly downregulated
same,TRIB3 expression level (downregulated in senescent MSCs),[2]; irradiated senescent MSCs,rescued
same,p-akt level,[2]; non-irradiated MSCs,significantly upregulated
same,relative nuclear circularity,[3],significantly increased the relative nuclear circularity
same,senescence levels,"[4]; 10 μM CBD, 8 days",decrease in senescence levels
same,senescence levels (toxicity effect),"[4]; 50 μM CBD, 4 days",increase in senescence levels
same,number of colonies,[5],higher number of colonies

# From patent publication US20220354805A1, “Cannabidiol (CBD) as Chemical for Treating Aging-related Degenerative Diseases and Promoting Health Aging” (Hemix Biotech Limited, priority 2021, published 2022)
